Test results taken from ChEMBL document CHEMBL1201862, “PubChem BioAssay data set” (2004).
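Test compounds were applied to cells in 96-well plates for 48 hours at 5 doses. Here, GI50 denotes the concentration required for 50% inhibition of growth.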 The source made the active and inactive calls. Rule as the data show it: active = GI50 up to about 1.1 µM and inactive = higher.

Columns and labels:
Experiment in all cases: DTP human tumour cell line panel, 48 h
[1] = system: 786-0
[2] = system: A498
[3] = system: A549
[4] = system: ACHN
[5] = system: CCRF-CEM
[6] = system: COLO 205
[7] = system: DLD-1
[8] = system: DMS-114
[9] = system: DMS-273
[10] = system: EKVX
[11] = system: HCC 2998
[12] = system: HCT-116
[13] = system: HCT-15
[14] = system: HL-60
[15] = system: HOP-18
[16] = system: HOP-62
[17] = system: HT-29
[18] = system: IGROV-1
[19] = system: K562
[20] = system: KM-20L2
[21] = system: KM12
[22] = system: LOX IMVI
[23] = system: LXFL 529
[24] = system: M14
[25] = system: MOLT-4
[26] = system: Malme-3M
[27] = system: NCI-H226
[28] = system: NCI-H23
[29] = system: NCI-H460
[30] = system: NCI-H522
[31] = system: OVCAR-3
[32] = system: OVCAR-4
[33] = system: OVCAR-5
[34] = system: OVCAR-8
[35] = system: RXF 393
[36] = system: SF-268
[37] = system: SF-295
[38] = system: SF-539
[39] = system: SK-MEL-28
[40] = system: SK-MEL-2
[41] = system: SK-MEL-5
[42] = system: SK-OV-3
[43] = system: SN12C
[44] = system: SNB-19
[45] = system: SNB-75
[46] = system: SNB-78
[47] = system: SR
[48] = system: SW-620
[49] = system: TK-10
[50] = system: U-251
[51] = system: UACC-257
[52] = system: UO-31
[53] = system: XF498
[54] = system: CAKI-1
[55] = system: HOP-92
[56] = system: M19-MEL
[57] = system: MCF7
[58] = system: NCI/ADR-RES
[59] = system: RPMI-8226
[60] = system: UACC-62

C/C(O)=C1\CC2CN3CCc4c([nH]c5ccccc45)C3CC2CC1=O (configuration not stated)
GI50 [1]: 38 µM (inactive)
GI50 [2]: > 100 µM (inactive)
GI50 [3]: > 100 µM (inactive)
GI50 [4]: 82.8 µM (inactive)
GI50 [5]: 29.4 µM (inactive)
GI50 [6]: > 100 µM (inactive)
GI50 [7]: 40.6 µM (inactive)
GI50 [8]: 46.2 µM (inactive)
GI50 [9]: 57.4 µM (inactive)
GI50 [10]: 37 µM (inactive)
GI50 [11]: 58.9 µM (inactive)
GI50 [12]: 52.1 µM (inactive)
GI50 [13]: 45.4 µM
GI50 [14]: 32.7 µM (inactive)
GI50 [15]: 52.8 µM (inactive)
GI50 [16]: > 100 µM (inactive)
GI50 [17]: 67.1 µM (inactive)
GI50 [18]: > 100 µM (inactive)
GI50 [19]: 28.5 µM (inactive)
GI50 [20]: 92 µM (inactive)
GI50 [21]: > 100 µM (inactive)
GI50 [22]: 26.1 µM (inactive)
GI50 [23]: 34.4 µM (inactive)
GI50 [24]: 49.4 µM (inactive)
GI50 [25]: 21.8 µM (inactive)
GI50 [26]: > 100 µM (inactive)
GI50 [27]: 54.1 µM (inactive)
GI50 [28]: 92 µM (inactive)
GI50 [29]: > 100 µM (inactive)
GI50 [30]: 65.6 µM (inactive)
GI50 [31]: 27.9 µM (inactive)
GI50 [32]: 46 µM (inactive)
GI50 [33]: 70 µM (inactive)
GI50 [34]: 89.1 µM (inactive)
GI50 [35]: 20.9 µM (inactive)
GI50 [36]: 54.6 µM (inactive)
GI50 [37]: > 100 µM (inactive)
GI50 [38]: 75.2 µM (inactive)
GI50 [39]: > 100 µM (inactive)
GI50 [40]: 43 µM (inactive)
GI50 [41]: 55.2 µM (inactive)
GI50 [42]: 24.8 µM (inactive)
GI50 [43]: 71.1 µM (inactive)
GI50 [44]: > 100 µM (inactive)
GI50 [45]: 21.4 µM (inactive)
GI50 [46]: 32.9 µM (inactive)
GI50 [47]: 23.4 µM (inactive)
GI50 [48]: 38.5 µM (inactive)
GI50 [49]: > 100 µM (inactive)
GI50 [50]: > 100 µM (inactive)
GI50 [51]: > 100 µM (inactive)
GI50 [52]: 37.9 µM (inactive)
GI50 [53]: 32 µM (inactive)

COc1ccc(CC(N)=O)cc1OC
GI50 [2]: > 1250 µM (inactive)
GI50 [3]: > 1250 µM (inactive)
GI50 [54]: 564 µM (inactive)
GI50 [5]: > 1250 µM (inactive)
GI50 [6]: > 1250 µM (inactive)
GI50 [7]: > 1250 µM (inactive)
GI50 [8]: > 1250 µM (inactive)
GI50 [9]: > 1250 µM (inactive)
GI50 [10]: > 1250 µM (inactive)
GI50 [11]: > 1250 µM (inactive)
GI50 [12]: > 1250 µM (inactive)
GI50 [13]: 1090 µM
GI50 [14]: > 1150 µM (inactive)
GI50 [15]: 881 µM (inactive)
GI50 [16]: > 818 µM (inactive)
GI50 [55]: 753 µM (inactive)
GI50 [17]: > 1250 µM (inactive)
GI50 [18]: > 1250 µM (inactive)
GI50 [19]: > 1250 µM (inactive)
GI50 [20]: > 1140 µM (inactive)
GI50 [21]: > 1250 µM (inactive)
GI50 [22]: > 1250 µM (inactive)
GI50 [56]: > 1250 µM (inactive)
GI50 [57]: > 1250 µM (inactive)
GI50 [25]: > 1250 µM (inactive)
GI50 [26]: > 1250 µM (inactive)
GI50 [27]: > 1250 µM (inactive)
GI50 [28]: > 1250 µM (inactive)
GI50 [29]: > 1250 µM (inactive)
GI50 [30]: > 1250 µM (inactive)
GI50 [58]: > 1250 µM (inactive)
GI50 [31]: > 1250 µM (inactive)
GI50 [32]: > 1250 µM (inactive)
GI50 [33]: > 853 µM (inactive)
GI50 [34]: 198 µM (inactive)
GI50 [59]: > 1250 µM (inactive)
GI50 [35]: > 1250 µM (inactive)
GI50 [36]: > 1250 µM (inactive)
GI50 [37]: > 1250 µM (inactive)
GI50 [38]: > 1250 µM (inactive)
GI50 [39]: > 1250 µM (inactive)
GI50 [40]: > 1250 µM (inactive)
GI50 [41]: > 1250 µM (inactive)
GI50 [42]: > 1250 µM (inactive)
GI50 [43]: > 1250 µM (inactive)
GI50 [44]: > 1250 µM (inactive)
GI50 [45]: 769 µM (inactive)
GI50 [46]: > 1250 µM (inactive)
GI50 [48]: > 1250 µM (inactive)
GI50 [50]: > 1250 µM (inactive)
GI50 [51]: 703 µM (inactive)
GI50 [60]: > 1250 µM (inactive)
GI50 [52]: > 1250 µM (inactive)
GI50 [53]: > 879 µM (inactive)
